Series [1] relates to Mycobacterium tuberculosis. As to the kind of experiment: Anti-tubercular activity against rifampicin, isoniazid, ethambutol and pyrazinamide-sensitive Mycobacterium tuberculosis H37Ra ATCC 25177 assessed as growth inhibition at 30 ug/ml by XRMA method relative to control. Format: functional. The conditions noted are these: read-out: GI.
The test system of series [2] is Escherichia coli. Briefly: Antibacterial activity against Escherichia coli […] assessed as growth inhibition at 30 ug/ml relative to control. The series is classed as functional. The conditions noted are these: for inhibition of growth at 30 µg/mL: read-out: GI.
Series [3] concerns Mycobacterium tuberculosis. As to the kind of experiment: Anti-tubercular activity against rifampicin, isoniazid, ethambutol and pyrazinamide-sensitive Mycobacterium tuberculosis H37Ra ATCC 25177 assessed as growth inhibition at 10 ug/ml by XRMA method relative to control. The settings on record: read-out: GI. The series is classed as functional.
Series [4] concerns Mycobacterium tuberculosis. As to the kind of experiment: Anti-tubercular activity against rifampicin, isoniazid, ethambutol and pyrazinamide-sensitive Mycobacterium tuberculosis H37Ra ATCC 25177 assessed as growth inhibition at 3 ug/ml by XRMA method relative to control. Format: functional. The settings on record: read-out: GI.
Series [5] concerns Staphylococcus aureus. As to the kind of experiment: Antibacterial activity against Staphylococcus aureus ATCC 29213 assessed as growth inhibition at 30 ug/ml relative to control. Format: functional. The conditions noted are these: for inhibition of growth at 30 µg/mL: read-out: GI.
Series [6] deals with Mycobacterium tuberculosis. Briefly: Anti-tubercular activity against rifampicin, isoniazid, ethambutol and pyrazinamide-sensitive active phage of Mycobacterium tuberculosis H37Ra ATCC 25177 infected in human THP1 cells by neutral red assay. The series is classed as functional, organism-based. The conditions noted are these: H37Ra ATCC 25177, THP-1.
The nature of series [7]: (§1) Cytotoxicity against human THP1 cells after 48 hrs by MTT assay. Format: cell-based, THP-1. The settings on record: THP-1 cells. (In general: Tetrazolium dyes change colour on reduction, which living cells bring about.)
Series [8] concerns THP-1. The series is described as §1. The series is classed as cell-based. The conditions noted are these: thp-1, 48 h.
The subject of series [9] is Pseudomonas fluorescens. Briefly: Antibacterial activity against Pseudomonas fluorescens ATCC 13525 assessed as growth inhibition at 30 ug/ml relative to control. The conditions noted are these: for inhibition of growth at 30 µg/mL: read-out: GI. The series is classed as functional.
Series [10] can be described thus: (§2) Cytotoxicity against human A549 cells after 48 hrs by MTT assay. The series is classed as cell-based. The settings on record: A549 cells.
Series [11] relates to A549. The series is described as §2. The series is classed as cell-based. The conditions noted are these: a549, 48 h.
The test system of series [12] is Mycobacterium tuberculosis. Briefly: Anti-tubercular activity against rifampicin, isoniazid, ethambutol and pyrazinamide-sensitive active phage of Mycobacterium tuberculosis H37Ra ATCC 25177 by serial dilution method. Format: functional, organism-based.
The test system of series [13] is Mycobacterium tuberculosis. Briefly: Anti-tubercular activity against rifampicin, isoniazid, ethambutol and pyrazinamide-sensitive dormant phage of Mycobacterium tuberculosis H37Ra ATCC 25177 infected in human THP1 cells by neutral red assay. The series is classed as functional, organism-based. The conditions noted are these: H37Ra ATCC 25177, THP-1.
The subject of series [14] is Mycobacterium tuberculosis. As to the kind of experiment: Anti-tubercular activity against rifampicin, isoniazid, ethambutol and pyrazinamide-sensitive dormant phage of Mycobacterium tuberculosis H37Ra ATCC 25177 by serial dilution method. Format: functional, organism-based.
In series [15] the test system is Bacillus subtilis. Briefly: Antibacterial activity against Bacillus subtilis ATCC 23857 assessed as growth inhibition at 30 ug/ml relative to control. The conditions noted are these: for inhibition of growth at 30 µg/mL: read-out: GI. The series is classed as functional.
Series [16] in a line: Cytotoxicity against human PANC1 cells after 48 hrs by MTT assay. The conditions noted are these: for GI50 at 48 h: PANC-1 cells; for GI90: panc-1, 48 h. Format: cell-based, PANC-1.

This note sets out measurements from ChEMBL document CHEMBL3616451, “Design and synthesis of 11α-substituted bile acid derivatives as potential anti-tuberculosis agents” (Bioorg Med Chem Lett, 2015).

Converted amounts (≈) assume the structure as drawn. The source made the active and inactive calls. No cut-off for these calls is given here.

The IC50 is the concentration that gives 50% inhibition. By IC90 is commonly meant the concentration at which the effect reaches the 90% level. A low value points to greater potency. As a reminder, the GI50 is the concentration at which growth is held to half of that of the control.

In the case of `COC(=O)CC[C@@H](C)[C@H]1CC[C@H]2[C@H]3[C@H]([C@H](n4nnc5ccccc54)C(=O)[C@]12C)[C@@]1(C)CC[C@@H](OC(C)=O)C[C@H]1C[C@H]3OC(C)=O`, the inhibition of growth at 30 µg/mL in series [1] came to 96%; in [2], 33.8%; in [9] it was 46.8%; in series [15], 8.94%. In series [3], the inhibition of growth at 10 µg/mL is 94%. In addition, the inhibition of growth at 3 µg/mL in series [4] is 76%. For the same molecule, in [5], the “growth inhibition (GI)” value was “inactive”. The IC50 in series [6] came to 1.11 µg/mL (≈ 1.79 µM); in series [12] it was 1.08 µg/mL (≈ 1.74 µM); in series [13] it was 1.65 µg/mL (≈ 2.65 µM); in series [14] it was 1.27 µg/mL (≈ 2.04 µM). Also, the 90% effect concentration (IC90) in [6] is 8.6 µg/mL (≈ 13.8 µM); in series [12] it was 9.79 µg/mL (≈ 15.7 µM); in series [13] it was 8.16 µg/mL (≈ 13.1 µM); in [14], 7.15 µg/mL (≈ 11.5 µM). Besides, the GI50 at 48 h in [7] stood at 29.9 µg/mL (≈ 48.1 µM); in series [10], 20 µg/mL (≈ 32.2 µM); in series [16], 50 µg/mL (≈ 80.4 µM). The GI90 in series [8], in series [11] and in [16] was more than 100 µg/mL throughout.

As for `COC(=O)CC[C@@H](C)[C@H]1CC[C@H]2[C@H]3[C@H]([C@H](n4cc(-c5ccccn5)nn4)C(=O)[C@]12C)[C@@]1(C)CC[C@@H](OC(C)=O)C[C@H]1C[C@H]3OC(C)=O`, the results for the inhibition of growth at 30 µg/mL in series [1], in [2] and in [9] were 71%, 32.1% and 47.1%, respectively. For the same molecule, the inhibition of growth at 10 µg/mL in [3] amounted to 48%. Also, the inhibition of growth at 3 µg/mL in [4] amounted to 38%. In addition, the “growth inhibition (GI)” value in series [5] and in series [15] was “inactive” each time.

Turning to `COC(=O)CC[C@@H](C)[C@H]1CC[C@H]2[C@H]3[C@H]([C@H](NC(=O)C(CO)NC(=O)OC(C)(C)C)C(=O)[C@]12C)[C@@]1(C)CC[C@@H](OC(C)=O)C[C@H]1C[C@H]3OC(C)=O` (stereo partly drawn), the inhibition of growth at 30 µg/mL was found to be 91% in [1], 43.2% in series [2], 11.9% in series [5] and 29.9% in [9]. Besides, the inhibition of growth at 10 µg/mL in [3] was found to be 73%. Besides, the inhibition of growth at 3 µg/mL in series [4] was 68%. Further, the IC50 is 3.98 µg/mL (≈ 5.63 µM) in series [6], 2.7 µg/mL (≈ 3.82 µM) in [12], 3.44 µg/mL (≈ 4.87 µM) in series [13] and 6.16 µg/mL (≈ 8.71 µM) in [14]. Moreover, the IC90 came out at 26.9 µg/mL (≈ 38 µM) in series [6], 28.9 µg/mL (≈ 40.8 µM) in [12], 26.3 µg/mL (≈ 37.2 µM) in series [13] and 26.3 µg/mL (≈ 37.2 µM) in [14]. The GI50 at 48 h in [7] was 76.2 µg/mL (≈ 108 µM); in [10], more than 100 µg/mL; in [16] it was more than 100 µg/mL. Further, the GI90 in [8], in series [11] and in [16] was more than 100 µg/mL each time. Besides, in [15], the “growth inhibition (GI)” value was “inactive”.

Take `CCCCCCc1cn([C@@H]2C(=O)[C@]3(C)[C@@H]([C@H](C)CCC(=O)OC)CC[C@H]3[C@H]3[C@H]2[C@@]2(C)CC[C@@H](OC(C)=O)C[C@H]2C[C@H]3OC(C)=O)nn1`: the inhibition of growth at 30 µg/mL in [1] was found to be 97%; in series [15], 22.9%. The “growth inhibition (GI)” value in [2], in series [5] and in series [9] was “inactive” throughout. Also, the inhibition of growth at 10 µg/mL in [3] is 96%. For the same molecule, the inhibition of growth at 3 µg/mL in series [4] is 91%. The IC50 came out at 0.25 µg/mL (≈ 0.381 µM) in series [6], 0.64 µg/mL (≈ 0.976 µM) in [12], 0.13 µg/mL (≈ 0.198 µM) in [13] and 0.17 µg/mL (≈ 0.259 µM) in [14]. Moreover, the IC90 was found to be 2.8 µg/mL (≈ 4.27 µM) in [6], 2.63 µg/mL (≈ 4.01 µM) in series [12], 1.55 µg/mL (≈ 2.36 µM) in [13] and 2.43 µg/mL (≈ 3.7 µM) in series [14]. The GI50 at 48 h in series [7], in [10] and in [16] was more than 100 µg/mL in each case. In addition, the GI90 in series [8], in [11] and in series [16] was more than 100 µg/mL throughout.

As for `COC(=O)CC[C@@H](C)[C@H]1CC[C@H]2[C@H]3[C@H]([C@H](NC(C)C)C(=O)[C@]12C)[C@@]1(C)CC[C@@H](OC(C)=O)C[C@H]1C[C@H]3OC(C)=O`, the inhibition of growth at 30 µg/mL in series [1] is 84%; in series [2], 31.9%; in series [5], 16.4%; in series [9] it was 37.2%; in series [15] it was 4.79%. In addition, in series [3], the inhibition of growth at 10 µg/mL came out at 71%. Besides, the inhibition of growth at 3 µg/mL in series [4] was determined as 66%.

For `COC(=O)CC[C@@H](C)[C@H]1CC[C@H]2[C@H]3[C@H]([C@H](n4cc(-c5ccc(F)cc5)nn4)C(=O)[C@]12C)[C@@]1(C)CC[C@@H](OC(C)=O)C[C@H]1C[C@H]3OC(C)=O`, the inhibition of growth at 30 µg/mL in [1] was determined as 79%; in series [2] it was 43.8%; in series [9] it was 23.2%; in series [15], 20%. In [3], the inhibition of growth at 10 µg/mL worked out at 75%. Besides, in series [4], the inhibition of growth at 3 µg/mL came to 71%. For the same molecule, the “growth inhibition (GI)” value in series [5] was “inactive”.

With `CCOC(=O)N[C@@H]1C(=O)[C@]2(C)[C@@H]([C@H](C)CCC(=O)OC)CC[C@H]2[C@H]2[C@H]1[C@@]1(C)CC[C@@H](OC(C)=O)C[C@H]1C[C@H]2OC(C)=O`, the inhibition of growth at 30 µg/mL in series [1] came out at 86%; in [2], 46.7%; in series [5] it was 17.3%; in series [9], 54.5%. Also, in [3], the inhibition of growth at 10 µg/mL was 73%. Also, the inhibition of growth at 3 µg/mL in [4] was determined as 66%. Moreover, in series [15], the “growth inhibition (GI)” value was “inactive”.

For the molecule `CC(=O)O[C@H]1C(=O)[C@@]2(C)[C@H]([C@H](OC(=O)c3ccccc3)[C@]3(O)C[C@H](OC(=O)[C@H](O)[C@@H](NC(=O)c4ccccc4)c4ccccc4)C(C)=C1C3(C)C)[C@]1(OC(C)=O)CO[C@@H]1C[C@@H]2O` [PACLITAXEL], the 50% growth inhibitory concentration (GI50) at 48 h in series [7] is 0.137 µg/mL (≈ 0.161 µM); in series [10], 0.0035 µg/mL (≈ 0.0041 µM); in series [16], 0.128 µg/mL (≈ 0.15 µM). For the same molecule, the GI90 in series [8] was 5.814 µg/mL (≈ 6.81 µM); in [11], 0.0706 µg/mL (≈ 0.0827 µM); in series [16] it was 5.715 µg/mL (≈ 6.69 µM).

Consider `COC(=O)CC[C@@H](C)[C@H]1CC[C@H]2[C@H]3[C@H]([C@H](NC(=O)[C@H]4CCCN4C(=O)OC(C)(C)C)C(=O)[C@]12C)[C@@]1(C)CC[C@@H](OC(C)=O)C[C@H]1C[C@H]3OC(C)=O`, for which the inhibition of growth at 30 µg/mL in [1] was 94%; in [2] it was 26.8%; in series [9], 61.5%. The inhibition of growth at 10 µg/mL in [3] was 80%. For the same molecule, the inhibition of growth at 3 µg/mL in series [4] is 66%. The “growth inhibition (GI)” value in series [5] and in [15] was “inactive” each time. The IC50 was 1.96 µg/mL (≈ 2.73 µM) in series [6], 3.62 µg/mL (≈ 5.05 µM) in series [12], 1.32 µg/mL (≈ 1.84 µM) in [13] and 2.25 µg/mL (≈ 3.14 µM) in series [14]. Besides, the IC90 in [6] was 27.3 µg/mL (≈ 38.1 µM); in series [12], 27.5 µg/mL (≈ 38.3 µM); in [13] it was 23.8 µg/mL (≈ 33.3 µM); in series [14], 27 µg/mL (≈ 37.7 µM). Besides, the GI50 at 48 h in [7] came out at 46 µg/mL (≈ 64.1 µM); in series [10] it was 52 µg/mL (≈ 72.5 µM); in [16], 15 µg/mL (≈ 20.9 µM). The GI90 in series [8], in series [11] and in series [16] was more than 100 µg/mL throughout.
